The text below walks through data of patent US9120804B2, “8-substituted 2-amino-[1,2,4] triazolo [1, 5-A] pyrazines as Syk tryrosine kinase inhibitors and GCN2 serin kinase inhibitors” (Merck Patent GmbH, priority 2012, dated 2015).

Molecules are shown by their SMILES. A value given as a limit tells only on which side of the number the result lay.

What is called IC50 is the concentration at which inhibition is half-maximal.

The experiment addresses T1, SYK (Homo sapiens, UniProt P43405).
T1 construct: 2.5 nM SYK, 400 nM Biotin-Aha-Aha-KEDPDYEWPSAKK
The experiment in a line: SYK flash plate assay (enzyme assay). The experiment is classed as biochemical. As to the method: The kinase assay is performed either as 384-well Flashplate assay (for e.g. Topcount measurement) or as 384-well Image-Flashplate assay (for LEADseeker measurement).
2.5 nM SYK, 400 nM Biotin-Aha-Aha-KEDPDYEWPSAKK
and 10 μM ATP (spiked with 0.3 μCi 33P-ATP/well) are incubated in a total volume of 50 μl (60 mM Hepes, 10 mM MgCl2, 1.2 mM Dithiothreitol, 0.02% Brij35, 0.1% BSA, pH 7.5) with or without test compound for 1 hours at 30° C. The reaction is stopped with 25 μl 200 mM EDTA. After 30 Min at 30° C. the liquid is removed and each well washed thrice with 100 μl 0.9% sodium chloride solution. Non-specific reaction is determined in presence of […] Staurosporine. Radioactivity is measured with Topcount (when using Flashplates) or with LEADseeker (when using Image-Flashplates) respectively. Results (e.g. IC50-values) are calculated with program tools provided by the IT-department (e.g. Symyx Assay Explorer, Genedata Screener). In Vivo Assays CIA
`CC1(C)C(=O)Nc2cc(Nc3nc4c(N5CCCCCC5)nccn4n3)ccc21` [E57, 6-(8-azepan-1-yl-[1,2,4]triazolo[1,5-a]pyrazin-2-ylamino)-3,3-dimethyl-1,3-dihydro-indol-2-one] came in with an IC50 of less than 100 nM. As for `CC1(C)C(=O)Nc2cc(Nc3nc4c(N5CC6(CCNC6)c6cc(Cl)ccc65)nccn4n3)ccc21` (stereo not drawn) [E130, 6-[8-(5-Chloro-spiro[indole-3,3′-pyrrolidin]-1-yl)-[1,2,4]triazolo[1,5-a]pyrazin-2-ylamino]-3,3-dimethyl-1,3-dihydro-indol-2-one], the figure is 300 to 3000 nM. For `Cc1nc(C2CCN(c3nccn4nc(Nc5ccc6c(c5)NC(=O)C6(C)C)nc34)CC2)[nH]c1C` [E37, 6-{8-[4-(4,5-dimethyl-1H-imidazol-2-yl)-piperidin-1-yl]-[1,2,4]triazolo[1,5-a]pyrazin-2-ylamino}-3,3-dimethyl-1,3-dihydro-indol-2-one], the IC50 lay in the range of 100 to 300 nM. `CC1(C)C(=O)Nc2cc(Nc3nc4c(Nc5n[nH]c(C(F)(F)F)n5)nccn4n3)ccc21` [E60, 3,3-dimethyl-6-[8-(5-trifluoromethyl-1H-[1,2,4]triazol-3-ylamino)-[1,2,4]triazolo[1,5-a]pyrazin-2-ylamino]-1,3-dihydro-indol-2-one]: the IC50 is 300 to 3000 nM.

As to `CC1(C)CC(=O)Nc2cc(Nc3nc4c(N5CCCC5c5ccccc5)nccn4n3)ccc21` (stereo not drawn) [E93, 4,4-dimethyl-7-[8-(2-phenyl-pyrrolidin-1-yl)-[1,2,4]triazolo[1,5-a]pyrazin-2-ylamino]-3,4-dihydro-1H-quinolin-2-one], the IC50 was 300 to 3000 nM. The result for `CC1(C)CNc2cc(Nc3nc4c(N5CCCCCC5)nccn4n3)ccc21` [E99, (8-azepan-1-yl-[1,2,4]triazolo[1,5-a]pyrazin-2-yl)-(3,3-dimethyl-2,3-dihydro-1H-indol-6-yl)-amine] reads less than 100 nM; that for `COc1ccc(OC)c(Nc2nc3c(-c4ccccc4-c4ccccc4)nccn3n2)c1` [C3, (8-Biphenyl-2-yl-[1,2,4]triazolo[1,5-a]pyrazin-2-yl)-(2,5-dimethoxy-phenyl)-amine], 300 to 3000 nM. `CC1(C)C(=O)Nc2cc(Nc3nc4c(N5C6CCC5COC6)nccn4n3)ccc21` [C96, 3,3-dimethyl-6-[8-(3-oxa-8-aza-bicyclo[3.2.1 l]oct-8-yl)-[1,2,4]triazolo[1,5-a]pyrazin-2-ylamino]-1,3-dihydro-indol-2-one] gave an IC50 of 100 to 300 nM. Molecule `COc1ccc2c(c1)CCN2c1nccn2nc(Nc3ccc4c(c3)NC(=O)C4(C)C)nc12` [E81, 6-[8-(5-methoxy-2,3-dihydro-indol-1-yl)-[1,2,4]triazolo[1,5-a]pyrazin-2-ylamino]-3,3-dimethyl-1,3-dihydro-indol-2-one] had an IC50 of less than 100 nM. The result for `CC1(C)C(=O)Nc2cc(Nc3nc4c(-c5ccc(N(C(F)(F)F)C(F)(F)F)cc5)nccn4n3)ccc21` [E152, 6-{8-[4-(bis-trifluoromethyl-amino)-phenyl]-[1,2,4]triazolo[1,5-a]pyrazin-2-ylamino}-3,3-dimethyl-1,3-dihydro-indol-2-one] reads 3000 to 50000 nM.

Regarding `CC1(C)C(=O)Nc2cc(Nc3nc4c(NC5CN6CCC5CC6)nccn4n3)ccc21` (stereo not drawn) [E135, 6-[8-(1-aza-bicyclo[2.2.2]oct-3-ylamino)-[1,2,4]triazolo[1,5-a]pyrazin-2-ylamino]-3,3-dimethyl-1,3-dihydro-indol-2-one], the IC50 was less than 100 nM. `CC1(C)C(=O)Nc2cc(Nc3nc4c(N5CCC6(CCNC6=O)CC5)nccn4n3)ccc21` [E13, 8-[2-(3,3-dimethyl-2-oxo-2,3-dihydro-1H-indol-6-ylamino)-[1,2,4]triazolo[1,5-a]pyrazin-8-yl]-2,8-diaza-spiro[4.5]decan-1-one] showed an IC50 of less than 100 nM.

`Cn1cc(-c2nccn3nc(Nc4ccc(C(C)(C)C)cc4)nc23)cn1` [C62, (4-tert-butyl-phenyl)-[8-(1-methyl-1H-pyrazol-4-yl)-[1,2,4]triazolo[1,5-a]pyrazin-2-yl]-amine] yielded an IC50 of 100 to 300 nM.

On to `CC1(C)C(=O)Nc2cc(Nc3nc4c(N(CCO)C5CCNCC5)nccn4n3)ccc21` [C93, 6-{8-[(2-hydroxy-ethyl)-piperidin-4-yl-amino]-[1,2,4]triazolo[1,5-a]pyrazin-2-ylamino}-3,3-dimethyl-1,3-dihydro-indol-2-one], for which the IC50 was 300 to 3000 nM. For `N#Cc1ccc(Nc2nc3c(-c4ccccc4-c4ccccc4)nccn3n2)cc1O` [C35, 4-(8-Biphenyl-2-yl-[1,2,4]triazolo[1,5-a]pyrazin-2-ylamino)-2-hydroxybenzonitrile], the half-maximal inhibitory concentration (IC50) lay within 3000 to 50000 nM. The result for `CC1(C)C(=O)Nc2cc(Nc3nc4c(N5CCC6(CN[C@H](C(F)(F)F)C6)C5)nccn4n3)ccc21` (stereo partly drawn) [E153, 3,3-dimethyl-6-[8-((S)-8-trifluoromethyl-2,7-diaza-spiro[4.4]non-2-yl)-[1,2,4]triazolo[1,5-a]pyrazin-2-ylamino]-1,3-dihydro-indol-2-one] reads less than 100 nM; that for `COCC1CCCN1c1nccn2nc(Nc3ccc4c(c3)NC(=O)C4(C)C)nc12` (stereo not drawn) [E83, 6-[8-(2-methoxymethyl-pyrrolidin-1-yl)-[1,2,4]triazolo[1,5-a]pyrazin-2-ylamino]-3,3-dimethyl-1,3-dihydro-indol-2-one], 300 to 3000 nM. For `CC1(C)CCCc2ccc(-c3nccn4nc(Nc5ccc6c(c5)NC(=O)C6(C)C)nc34)cc21` [E146, 6-[8-(8,8-dimethyl-5,6,7,8-tetrahydro-naphthalen-2-yl)-[1,2,4]triazolo[1,5-a]pyrazin-2-ylamino]-3,3-dimethyl-1,3-dihydro-indol-2-one], the IC50 was 300 to 3000 nM. With `CC1(C)C(=O)Nc2cc(Nc3nc4c(N5C[C@H](O)C[C@@H]5c5ccccc5)nccn4n3)ccc21` (racemic) [C143, 6-[8-(4-hydroxy-2-phenyl-pyrrolidin-1-yl)-[1,2,4]triazolo[1,5-a]pyrazin-2-ylamino]-3,3-dimethyl-1,3-dihydro-indol-2-one], the IC50 lay within 100 to 300 nM. As for `COc1cc(Nc2nc3c(N4CCC(NS(C)(=O)=O)CC4)nccn3n2)cc(OC)c1` [C53, N-{1-[2-(3,5-dimethoxy-phenylamino)-[1,2,4]triazolo[1,5-a]pyrazin-8-yl]-piperidin-4-yl}-methanesulfonamide], the figure is 300 to 3000 nM. Consider `CC1(C)C(=O)Nc2cc(Nc3nc4c(N5CC[C@@]6(CC(=O)NC6=O)C5)nccn4n3)ccc21` [E16, (R)-7-[2-(3,3-dimethyl-2-oxo-2,3-dihydro-1H-indol-6-ylamino)-[1,2,4]triazolo[1,5-a]pyrazin-8-yl]-2,7-diaza-spiro[4.4]nonane-1,3-dione], for which the IC50 was less than 100 nM. In the case of `CC1(C(N)=O)CCN(c2nccn3nc(Nc4ccc5c(c4)NC(=O)C5(C)C)nc23)C1` (stereo not drawn) [E75, 1-[2-(3,3-dimethyl-2-oxo-2,3-dihydro-1H-indol-6-ylamino)-[1,2,4]triazolo[1,5-a]pyrazin-8-yl]-3-methyl-pyrrolidine-3-carboxylic acid amide], the concentration for half-maximal inhibition (IC50) is less than 100 nM. The result for `CC1(C)C(=O)Nc2cc(Nc3nc4c(-c5cnc6ccccc6c5)nccn4n3)ccc21` [E115, 3,3-Dimethyl-6-(8-quinolin-3-yl-[1,2,4]triazolo[1,5-a]pyrazin-2-ylamino)-1,3-dihydro-indol-2-one] reads less than 100 nM; that for `CC1(C)C(=O)Nc2cc(Nc3nc4c(N5CC(O)CC5c5ccccc5)nccn4n3)ccc21` (stereo not drawn) [C79, 6-[8-(4-hydroxy-2-phenyl-pyrrolidin-1-yl)-[1,2,4]triazolo[1,5-a]pyrazin-2-ylamino]-3,3-dimethyl-1,3-dihydro-indol-2-one], 300 to 3000 nM. For the molecule `CC1(C)C(=O)Nc2cc(Nc3nc4c(N5CCC(C(N)=O)CC5)nccn4n3)ccc21` [E40, 1-[2-(3,3-dimethyl-2-oxo-2,3-dihydro-1H-indol-6-ylamino)-[1,2,4]triazolo[1,5-a]pyrazin-8-yl]-piperidine-4-carboxylic acid amide], the 50% inhibitory concentration (IC50) was less than 100 nM.

`CCOC(=O)c1cnn2c1CN(c1nccn3nc(Nc4ccc5c(c4)NC(=O)C5(C)C)nc13)CC2` [C106, 5-[2-(3,3-dimethyl-2-oxo-2,3-dihydro-1H-indol-6-ylamino)-[1,2,4]triazolo[1,5-a]pyrazin-8-yl]-4,5,6,7-tetrahydro-pyrazolo[1,5-a]pyrazine-3-carboxylic acid ethyl ester] yielded an IC50 of 300 to 3000 nM.

As to `CN(c1cccc(C(N)=O)c1)c1nccn2nc(Nc3ccc4c(c3)NC(=O)C4(C)C)nc12` [E151, 3-{[2-(3,3-dimethyl-2-oxo-2,3-dihydro-1H-indol-6-ylamino)-[1,2,4]triazolo[1,5-a]pyrazin-8-yl]-methyl-amino}-benzamide], the IC50 fell in the range of 300 to 3000 nM. The result for `CC1(C)C(=O)Nc2cc(Nc3nc4c(N5CC[C@]6(CC(=O)NC6=O)C5)nccn4n3)ccc21` [E18, (S)-7-[2-(3,3-dimethyl-2-oxo-2,3-dihydro-1H-indol-6-ylamino)-[1,2,4]triazolo[1,5-a]pyrazin-8-yl]-2,7-diaza-spiro[4.4]nonane-1,3-dione] reads less than 100 nM; that for `CC1(C)C(=O)Nc2cc(Nc3nc4c(N5C[C@H](O)C[C@@H]5c5cccc(F)c5)nccn4n3)ccc21` [E64, 6-{8-[(2R,4R)-2-(3-fluoro-phenyl)-4-hydroxy-pyrrolidin-1-yl]-[1,2,4]triazolo[1,5-a]pyrazin-2-ylamino}-3,3-dimethyl-1,3-dihydro-indol-2-one], 300 to 3000 nM; that for `CC1(C)C(=O)Nc2cc(Nc3nc4c(-c5cnoc5)nccn4n3)ccc21` [E149, 6-(8-isoxazol-4-yl-[1,2,4]triazolo[1,5-a]pyrazin-2-ylamino)-3,3-dimethyl-1,3-dihydro-indol-2-one], less than 100 nM.
